Literature values in patent publication US20100160295A1, “TREATMENT OF RESTLESS LEG SYNDROME AND SLEEP DISORDERS” (SYNOSIA THERAPEUTICS, priority 2008, published 2010).

Test system: RLS patients
Details: RLS treatment, cited from earlier work

SMILES	major side effects reported	augmentation (worsening of symptoms following initiation of therapy), patients affected (estimated)
CCCN[C@H]1CCc2nc(N)sc2C1 [Pramipexole]	insomnia, dizziness, constipation, asthenia and hallucinations	–
N[C@@H](Cc1ccc(O)c(O)c1)C(=O)O [levidopa]	–	50-85%
